Data: US7989004B2, “Antitubercular extracts of Salicornia brachiata” (Council of Scientific and Industrial Research, priority 2004, dated 2011)

System: M. tuberculosis H37Rv
Assay: BACTEC method of in-vitro screening (growth index, radiometric 7H12 broth)
Format: cell-based
Settings: 100 μg/mL

For `OC[C@H]1O[C@@](CO)(O[C@H]2O[C@H](CO)[C@@H](O)[C@H](O)[C@H]2O)[C@@H](O)[C@@H]1O` [sucrose], the inhibition of growth was “no inhibition”.
